Assay results: patent US11400063B2, “Early administration of low-dose colchicine after myocardial infarction” (INSTITUT DE CARDIOLOGIE DE MONTREAL, priority 2019, dated 2022)

Tested on: patients recruited within 30 days after a myocardial infarction
Experiment: COLCOT safety and adverse events (safety population)
Assay type: in vivo, human
Experimental: All serious adverse events were recorded. The only other adverse events recorded were those that were considered to be related to the gastrointestinal system, events that were judged by the investigator to be related to colchicine or placebo, or laboratory abnormalities that had been judged by the investigator to be clinically significant.

[1] = safety population, listed as colchicine

Compound: COc1cc2c(c(OC)c1OC)-c1ccc(OC)c(=O)cc1[C@@H](NC(C)=O)CC2 [Colchicine, colchicine]
- trial regimen discontinued, % of patients (at the end of the trial): 18.4%
- incidence of septic shock (in contrast to canakinumab): did not increase
- Anemia, number of patients (safety population): 14 number
- Anemia, percent of patients (safety population): (0.6) percent
- Any related adverse event, percent of patients (safety population): (16.0) percent
- Any serious adverse event, number of patients (safety population): 383 number
- Any serious adverse event, percent of patients (safety population): (16.4) percent
- Cancer, number of patients (safety population): 43 number
- Cancer, percent of patients (safety population): (1.8) percent
- Diarrhea adverse event, number of patients (safety population): 225 number
- Diarrhea adverse event, percent of patients (safety population): (9.7) percent
- Flatulence adverse event, number of patients (safety population): 15 number
- Flatulence adverse event, percent of patients (safety population): (0.6) percent
- Gastrointestinal adverse event, number of patients (safety population): 408 number
- Gastrointestinal adverse event, percent of patients (safety population): (17.5) percent
- Gastrointestinal hemorrhage, number of patients (safety population): 7 number
- Gastrointestinal hemorrhage, percent of patients (safety population): (0.3) percent
- Gastrointestinal serious adverse event, number of patients (safety population): 46 number
- Gastrointestinal serious adverse event, percent of patients (safety population): (2.0 ) percent
- Hospitalization for heart failure, number of patients (safety population): 25 number
- Hospitalization for heart failure, percent of patients (safety population): (1.1) percent
- Infection serious adverse event, number of patients (safety population): 51 number
- Infection serious adverse event, percent of patients (safety population): (2.2) percent
- Leukopenia, number of patients (safety population): 2 number
- Leukopenia, percent of patients (safety population): (0.1) percent
- Nausea adverse event, number of patients (safety population): 43 number
- Nausea adverse event, percent of patients (safety population): (1.8) percent
- Pneumonia serious adverse event, number of patients (safety population): 21 number
- Pneumonia serious adverse event, percent of patients (safety population): (0.9) percent
- Septic shock serious adverse event, number of patients (safety population): 2 number
- Septic shock serious adverse event, percent of patients (safety population): (0.1) percent
- Thrombocytopenia, number of patients (safety population): 3 number
- Thrombocytopenia, percent of patients (safety population): (0.1) percent
- Any related adverse event, number of patients (safety population, N = 2330): 372 number
- Any related adverse event, percent of patients [1]: 16.0%
- Any serious adverse event, percent of patients [1]: 16.4%
- Diarrhea adverse event, percent of patients [1]: 9.7%
- Gastrointestinal adverse event, percent of patients [1]: 17.5%
- Infection serious adverse event, percent of patients [1]: 2.2%
- Nausea adverse event, percent of patients [1]: 1.8%
- Pneumonia serious adverse event, percent of patients [1]: 0.9%
- serious adverse event of myopathy linked to colchicine (statins used in 99% of trial participants): no serious adverse event
